Laboratory results reported in US11660293B2, “Substituted 2-azabicyclo[3.1.1]heptane and 2-azabicyclo[3.2.1]octane derivatives as orexin receptor antagonists” (Chronos Therapeutics Limited, priority 2017, dated 2023).

What was measured:
[1] = biological target: human Orexin type 1 receptors (Homo sapiens (Human), UniProt O43613); assay: Scintillation Proximity Assay (SPA) binding assay, [3H]SB-674042 displacement, CHO-hOX1 membranes; conditions: Table 2, [3H]SB-674042 2 nM
Method: Scintillation Proximity Assay (SPA) Binding Assays CHO cells stably transfected with human Orexin type 1 receptors (CHO-hOX1) or HEK-293 cells transiently transfected with human Orexin type 2 receptors (HEK-hOX2) were collected after 16 h induction with 5 mM sodium butyrate. […] The binding was performed in a final volume of 200 μl. 100 μl of hOX1 or hOX2 beads-membranes suspension were added to 100 μl of [^3H]SB-674042 or [^3H]EMPA solutions (radioligand concentration 2 nM final in the assay), into the 96-well Isoplates containing the 2 μl/well of compounds to be tested. Nonspecific binding was measured in the presence of 1 μM Almorexant. Assay plates were then incubated at room temperature for 3 h before being counted in a Microbeta scintillation counter (PerkinElmer). Data were analysed by non-linear regression analysis using XLfit Software.

[2] = biological target: human Orexin type 2 receptors (Homo sapiens (Human), UniProt O43614); assay: Scintillation Proximity Assay (SPA) binding assay, [3H]EMPA displacement, HEK-hOX2 membranes; conditions: Table 2, [3H]EMPA 2 nM
Method: Scintillation Proximity Assay (SPA) Binding Assays
CHO cells stably transfected with human Orexin type 1 receptors (CHO-hOX1) or HEK-293 cells transiently transfected with human Orexin type 2 receptors (HEK-hOX2) were collected after 16 h induction with 5 mM sodium butyrate. The cell pellets were re-suspended, homogenized in 15 mM Tris/HCl pH=7.5, 1 mM EGTA, 0.3 mM EDTA, 2 mM MgCl2, protease inhibitors and centrifuged at 40,000 g (20 min, 4° C.). After re-suspension, homogenization and centrifugation as above, the final pellets were re-suspended in 75 mM Tris/HCl pH=7.5, 1 mM EGTA, 0.3 mM EDTA, 12.5 mM MgCl2, 250 mM Sucrose, protease inhibitors, divided into aliquots and frozen down at −80° C.
CHO-hOX1 cell membranes (6 μg ml^−1) or HEK-hOX2 membranes (8 μg ml^−1) were pre-coupled with 1.0 mg ml^−1 of Wheatgerm Agglutinin-coated Yttrium Silicate (YSi-WGA) SPA beads (Perkin Elmer) in buffer containing 25 mM HEPES pH=7.4, 1 mM CaCl2), 5 mM MgCl2, 0.01% (w/v) BSA, 0.02% (w/v) Pluronic F-127 by shaking at room temperature for 2.5-3 h.
The binding was performed in a final volume of 200 μl. 100 μl of hOX1 or hOX2 beads-membranes suspension were added to 100 μl of [^3H]SB-674042 or [^3H]EMPA solutions (radioligand concentration 2 nM final in the assay), into the 96-well Isoplates containing the 2 μl/well of compounds to be tested. Nonspecific binding was measured in the presence of 1 μM Almorexant. Assay plates were then incubated at room temperature for 3 h before being counted in a Microbeta scintillation counter (PerkinElmer).
Data were analysed by non-linear regression analysis using XLfit Software.

Sequence of human Orexin type 2 receptors (O43614 whole entry): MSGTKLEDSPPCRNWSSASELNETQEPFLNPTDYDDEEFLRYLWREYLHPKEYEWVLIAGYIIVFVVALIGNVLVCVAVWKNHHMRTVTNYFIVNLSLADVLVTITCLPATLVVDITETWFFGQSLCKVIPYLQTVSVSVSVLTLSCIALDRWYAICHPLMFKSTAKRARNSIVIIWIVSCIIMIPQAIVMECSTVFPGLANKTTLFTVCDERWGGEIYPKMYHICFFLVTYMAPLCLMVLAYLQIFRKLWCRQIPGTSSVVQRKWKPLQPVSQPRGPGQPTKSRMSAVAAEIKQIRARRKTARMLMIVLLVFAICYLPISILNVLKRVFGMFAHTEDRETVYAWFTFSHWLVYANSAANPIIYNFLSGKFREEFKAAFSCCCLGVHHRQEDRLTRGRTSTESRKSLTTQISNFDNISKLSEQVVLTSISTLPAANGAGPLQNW
Sequence of human Orexin type 1 receptors (O43613 whole entry): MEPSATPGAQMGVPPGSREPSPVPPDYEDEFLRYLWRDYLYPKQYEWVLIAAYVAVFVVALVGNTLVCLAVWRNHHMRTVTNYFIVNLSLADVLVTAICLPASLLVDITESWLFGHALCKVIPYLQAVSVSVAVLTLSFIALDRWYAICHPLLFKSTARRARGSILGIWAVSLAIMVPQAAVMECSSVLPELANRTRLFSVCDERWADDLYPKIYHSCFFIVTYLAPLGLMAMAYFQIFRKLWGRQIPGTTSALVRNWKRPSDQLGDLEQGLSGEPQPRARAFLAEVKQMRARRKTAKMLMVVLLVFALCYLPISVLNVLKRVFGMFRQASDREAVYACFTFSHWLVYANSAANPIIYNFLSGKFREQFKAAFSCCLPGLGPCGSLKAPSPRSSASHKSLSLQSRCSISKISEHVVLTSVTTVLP

| Structure (SMILES) | OX1 pKi (SPA binding) [1] | OX2 pKi (SPA binding) [2] |
| --- | --- | --- |
| Cc1cnc(-n2nccn2)c(C(=O)N2C3CC(C3)[C@@H](C)C2COc2ccc(F)cc2)n1 (mixture of isomers) [Example 145, cis-3-[(4-fluorophenoxy)methyl]-4-methyl-2-[6-methyl-3-(2H-1,2,3-triazol-2-yl)pyrazine-2-carbonyl]-2-azabicyclo[3.1.1]heptane] | 7.03 | 5.62 |
| Cc1cn(-c2ccc(C)nc2C(=O)N2C3CC(C3)[C@@H](C)C2COc2ccc(F)cc2)nn1 (mixture of isomers) [Example 146, cis-3-[(4-fluorophenoxy)methyl]-4-methyl-2-[6-methyl-3-(4-methyl-1H-1,2,3-triazol-1-yl)pyridine-2-carbonyl]-2-azabicyclo[3.1.1]heptane] | 6.88 | 5.53 |
| Cc1ccc(-n2nccn2)c(C(=O)N2C3CC(C3)[C@H](C)C2CNc2ccc(Cl)cn2)n1 (mixture of isomers) [Example 148, trans-5-chloro-N-({4-methyl-2-[6-methyl-3-(2H-1,2,3-triazol-2-yl)pyridine-2-carbonyl]-2-azabicyclo[3.1.1]heptan-3-yl}methyl)pyridin-2-amine] | 6.85 | 5.62 |
| Cc1ccc(-n2nccn2)c(C(=O)N2C3CC(C3)[C@@H](C)C2CNc2nc3ccc(F)cc3s2)n1 (mixture of isomers) [Example 152, cis-6-fluoro-N-({4-methyl-2-[6-methyl-3-(2H-1,2,3-triazol-2-yl)pyridine-2-carbonyl]-2-azabicyclo[3.1.1]heptan-3-yl}methyl)-1,3-benzothiazol-2-amine] | 8.68 | 6.1 |
| Cc1ccc(-n2nccn2)c(C(=O)N2C3CC(C3)[C@@H](C)C2CNc2ccc(Cl)cn2)n1 (mixture of isomers) [Example 156, cis-5-chloro-N-({4-methyl-2-[6-methyl-3-(2H-1,2,3-triazol-2-yl)pyridine-2-carbonyl]-2-azabicyclo[3.1.1]heptan-3-yl}methyl)pyridin-2-amine] | 7.53 | 5.35 |
| Cc1ccc(-n2nccn2)c(C(=O)N2C3CC(C3)[C@@H](C)C2CNc2nc3cc(F)ccc3s2)n1 (mixture of isomers) [Example 157, cis-5-fluoro-N-({4-methyl-2-[6-methyl-3-(2H-1,2,3-triazol-2-yl)pyridine-2-carbonyl]-2-azabicyclo[3.1.1]heptan-3-yl}methyl)-1,3-benzothiazol-2-amine] | 7.84 | 5.63 |
| Cc1ccc(-n2nccn2)c(C(=O)N2C3CC(C3)[C@@H](C)C2CNc2cnc3ccccc3n2)n1 (mixture of isomers) [Example 158, cis-N-({4-methyl-2-[6-methyl-3-(2H-1,2,3-triazol-2-yl)pyridine-2-carbonyl]-2-azabicyclo[3.1.1]heptan-3-yl}methyl)quinoxalin-2-amine] | 8.4 | 5.74 |
| Cc1ccc(-n2nccn2)c(C(=O)N2C3CC(C3)[C@@H](C)C2CNc2ccc3ccccc3n2)n1 (mixture of isomers) [Example 161, cis-N-({4-methyl-2-[6-methyl-3-(2H-1,2,3-triazol-2-yl)pyridine-2-carbonyl]-2-azabicyclo[3.1.1]heptan-3-yl}methyl)quinolin-2-amine] | 7.32 | 5.2 |
| Cc1nc(C(=O)N2C3CC(C3)[C@@H](C)C2CNc2nc3ccc(F)cc3s2)c(-c2ncccn2)s1 (mixture of isomers) [Example 162, cis-6-fluoro-N-({4-methyl-2-[2-methyl-5-(pyrimidin-2-yl)-1,3-thiazole-4-carbonyl]-2-azabicyclo[3.1.1]heptan-3-yl]methyl)-1,3-benzothiazol-2-amine] | 8.83 | 5.59 |
| C[C@@H]1C2CC(C2)N(C(=O)c2cc(F)ccc2-n2nccn2)C1CNc1nc2ccc(F)cc2s1 (mixture of isomers) [Example 168, cis-6-fluoro-N-({2-[5-fluoro-2-(2H-1,2,3-triazol-2-yl)benzoyl]-4-methyl-2-azabicyclo[3.1.1]heptan-3-yl}methyl)-1,3-benzothiazol-2-amine] | 8.46 | 5.88 |
| C[C@@H]1C2CC(C2)N(C(=O)c2cc(Cl)ccc2-n2nccn2)C1CNc1nc2ccc(F)cc2s1 (mixture of isomers) [Example 171, cis-N-({2-[5-chloro-2-(2H-1,2,3-triazol-2-yl)benzoyl]-4-methyl-2-azabicyclo[3.1.1]heptan-3-yl}methyl)-6-fluoro-1,3-benzothiazol-2-amine] | 8.9 | 6.32 |
| CCOc1ccc(C)nc1C(=O)N1C2CC(C2)[C@@H](C)C1CNc1nc2ccc(F)cc2s1 (mixture of isomers) [Example 174, cis-N-{[2-(3-ethoxy-6-methylpyridine-2-carbonyl)-4-methyl-2-azabicyclo[3.1.1]heptan-3-yl]methyl}-6-fluoro-1,3-benzothiazol-2-amine] | 8.82 | 7.06 |
| Cc1ccc(-n2nccn2)c(C(=O)N2C3CC(C3)[C@@H](C)C2CNc2ccc(C(F)(F)F)cn2)n1 (mixture of isomers) [Example 181, cis-N-({4-methyl-2-[6-methyl-3-(2H-1,2,3-triazol-2-yl)pyridine-2-carbonyl]-2-azabicyclo[3.1.1]heptan-3-yl}methyl)-5-(trifluoromethyl)pyridin-2-amine] | 8.09 | 5.09 |
| C[C@@H]1C2CC(C2)N(C(=O)c2cc(F)ccc2-n2nccn2)C1CNc1cnc2ccccc2n1 (mixture of isomers) [Example 187, cis-N-({2-[5-fluoro-2-(2H-1,2,3-triazol-2-yl)benzoyl]-4-methyl-2-azabicyclo[3.1.1]heptan-3-yl}methyl)quinoxalin-2-amine] | 8.19 | 5.63 |
| C[C@@H]1C2CC(C2)N(C(=O)c2cc(F)ccc2-n2nccn2)C1CNc1ccc(C(F)(F)F)cn1 (mixture of isomers) [Example 190, cis-N-({2-[5-fluoro-2-(2H-1,2,3-triazol-2-yl)benzoyl]-4-methyl-2-azabicyclo[3.1.1]heptan-3-yl}methyl)-5-(trifluoromethyl)pyridin-2-amine] | 7.8 | 4.98 |
| Cc1ccc(-n2nccn2)c(C(=O)N2C3CC(C3)[C@@H](C)C2CNc2ncc(C(F)(F)F)cn2)n1 (mixture of isomers) [Example 193, cis-N-({4-methyl-2-[6-methyl-3-(2H-1,2,3-triazol-2-yl)pyridine-2-carbonyl]-2-azabicyclo[3.1.1]heptan-3-yl}methyl)-5-(trifluoromethyl)pyrimidin-2-amine] | 7.57 | 4.64 |
| Cc1ccc(-n2nccn2)c(C(=O)N2C3CC(C3)[C@@H](C)C2CNc2ccc(F)c(C)n2)n1 (mixture of isomers) [Example 196, cis-5-fluoro-6-methyl-N-({4-methyl-2-[6-methyl-3-(2H-1,2,3-triazol-2-yl)pyridine-2-carbonyl]-2-azabicyclo[3.1.1]heptan-3-yl}methyl)pyridin-2-amine] | 7.65 | 5.74 |
| Cc1ccc(-n2nccn2)c(C(=O)N2C3CC(C3)[C@@H](C)C2CNc2cccc(C(F)(F)F)n2)n1 (mixture of isomers) [Example 197, cis-N-({4-methyl-2-[6-methyl-3-(2H-1,2,3-triazol-2-yl)pyridine-2-carbonyl]-2-azabicyclo[3.1.1]heptan-3-yl}methyl)-6-(trifluoromethyl)pyridin-2-amine] | 6.99 | 5.76 |
| Cc1ccc(-n2nccn2)c(C(=O)N2C3CC(C3)[C@@H](C)C2CNc2cnc3cc(F)ccc3n2)n1 (mixture of isomers) [Example 198, cis-6-fluoro-N-({4-methyl-2-[6-methyl-3-(2H-1,2,3-triazol-2-yl)pyridine-2-carbonyl]-2-azabicyclo[3.1.1]heptan-3-yl}methyl)quinoxalin-2-amine] | 8.07 | 6.27 |
